Measured values as given in PMC9103351, “Effects of the Bark Resin Extract of Garcinia nigrolineata on Chronic Stress-Induced Memory Deficit in Mice Model and the In Vitro Monoamine Oxidases and β-Amyloid Aggregation Inhibitory Activities of Its Prenylated Xanthone Constituents” (Molecules, 2022).

System: UCMS mice
Assay: Morris Water Maze Test (MWMT) in UCMS mice
Assay type: in vivo, ICR mice
Description: Five-week-old male ICR mice (weight: 20-30 g), which were acquired from Nomura Siam International (Pathumwan, Bangkok, Thailand), were maintained at the Animal Unit of the Faculty of Pharmaceutical Sciences, Khon Kaen University. Mice were cared for in accordance with the Guiding Principles for the Care and Use of Animals (NIH Publications No. 80-23, revised in 2011). The facilities sustained a 12 h light/dark cycle, constant temperature (22 ± 2 °C), and humidity (45 ± 2%), with full access to food and drink. The current research was authorized by the Animal Ethics Committee for Use and Care of Khon Kaen University (IACUC-KKU-121/64) Mice in the stress groups received mild stressors for 6 weeks. […] In each trial, the latency to reach the platform (escape latency) and the distance covered were recorded for 5 days. […] After completion of the probe test, the time spent in the target quadrant (Q1) was counted as an index of reference memory.

For vitamin E, the “time spent in the target quadrant (MWMT probe, day 6)” value (100 mg/kg/day oral) was “significantly increased” and the “escape latency (MWMT training)” value (three weeks of treatment, days 3, 4 and 5) was “significantly reduced”.
